The results in this text go back to the supplement of paper PMC4862054.

Experiment in all cases: normalised viability (% of control), CellTiter-Blue; higher = more viable cells (about 100 = DMSO control)
Holding throughout (conditions): incubation time: 72 h
(Alamar Blue is a resazurin reagent that responds to reducing activity.)

One assay relates to DU-4475. The protocol: (§1)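 DSRT, CellTiter-Blue viability, 72 h incubation. Signal is normalised to DMSO and benzethonium chloride controls. Value is the normalised response at dose 8.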
In a further assay the test system is MDA-MB-453. The protocol:
as §1

The next assay deals with CAL-51. The protocol: as §1
Another assay relates to HDQ-P1. The protocol: as §1
The next assay has as its system CAL-85-1. The protocol: as §1
A further assay relates to CAL-148. The protocol: as §1

SMILES strings stand for the structures. “And” between values parts separate entries of the source, which are not always exact repeats. Equal entries are not always repeated.

As to `COc1cc(Nc2ncc(F)c(Nc3ccc4c(n3)NC(=O)C(C)(C)O4)n2)cc(OC)c1OC` [R406] (3000 nM), the normalised viability in the assay with DU-4475 is 92.6%; in the assay on MDA-MB-453, 110%; in the assay on CAL-51 it was 109%; in the assay with HDQ-P1, 98.3%; in the assay with CAL-85-1, 67.9%; with CAL-148, 105%.

Turning to `CCOc1cc2ncc(C#N)c(Nc3ccc(OCc4ccccn4)c(Cl)c3)c2cc1NC(=O)/C=C/CN(C)C` [Neratinib] (300 nM), the normalised viability in the assay on DU-4475 worked out at 87.2%; in the assay with MDA-MB-453, 79.9%; with CAL-51, 88%; in the assay on HDQ-P1, 122%; in the assay with CAL-85-1, 121%; with CAL-148 it was 101%.

As to `CS(=O)(=O)CCNCc1ccc(-c2ccc3ncnc(Nc4ccc(OCc5cccc(F)c5)c(Cl)c4)c3c2)o1` [Lapatinib] (3000 nM), the normalised viability with DU-4475 is 117% and 105%; in the assay with MDA-MB-453, 33.4% and 38.4%; in the assay on CAL-51 it was 107% and 96.5%; in the assay with HDQ-P1, 84.5% and 104%; in the assay on CAL-85-1, 52.1% and 54.6%; with CAL-148, 80.7% and 87.1%.

Turning to `O=c1[nH]c(=O)n([C@H]2C[C@H](O)[C@@H](CO)O2)cc1F` [Floxuridine] (3000 nM), the normalised viability in the assay on DU-4475 was determined as 97.9%; with MDA-MB-453 it was 71.8%; in the assay on CAL-51, 22.8%; in the assay on HDQ-P1 it was 80.1%; in the assay with CAL-85-1 it was 42.9%; with CAL-148 it was 44.8%.

On to `O=c1[nH]cc(F)c(=O)[nH]1` [Fluorouracil] (3000 nM), for which the normalised viability came out at 81.6% with DU-4475; 85.7% in the assay on MDA-MB-453; 87.9% in the assay on CAL-51; 87.8% in the assay with HDQ-P1; 62.6% with CAL-85-1; 65.6% in the assay with CAL-148.

`c1ccc(C2CN3CCSC3=N2)cc1` (stereo unspecified) [Tetramisole] (3000 nM): the normalised viability was 95.4% with DU-4475; 116% in the assay with MDA-MB-453; 101% in the assay with CAL-51; 101% in the assay on HDQ-P1; 93.5% in the assay on CAL-85-1; 109% in the assay on CAL-148.

For `C#Cc1cccc(Nc2ncnc3cc(OC)c(OCCCCCCC(=O)NO)cc23)c1` [CUDC-101] (3000 nM), the normalised viability in the assay on DU-4475 is 35%; with MDA-MB-453, 4.71%; with CAL-51, 68%; in the assay with HDQ-P1, 41.6%; with CAL-85-1 it was 4.33%; in the assay on CAL-148 it was 11.9%.

For `CC(C)C[C@H](NC(=O)[C@H](Cc1ccccc1)NC(=O)c1cnccn1)B(O)O` [Bortezomib] (300 nM), the normalised viability in the assay with DU-4475 was determined as 0.52%; in the assay with MDA-MB-453, 19.3%; in the assay with CAL-51, 1.35%; with HDQ-P1, 1.48%; with CAL-85-1, 2.25%; in the assay on CAL-148 it was 9.74%.

For the compound `COC1=CC(c2cc3ccccc3[nH]2)=N/C1=C\c1[nH]c(C)cc1C` [Obatoclax] (3000 nM), the normalised viability in the assay with DU-4475 is 78.5%; in the assay with MDA-MB-453, 33.4%; in the assay on CAL-51 it was 38.5%; in the assay on HDQ-P1, 39.3%; in the assay with CAL-85-1, 31.2%; in the assay with CAL-148, 59.6%.

For the compound `CC[C@@]1(O)C(=O)OCc2c1cc1n(c2=O)Cc2cc3ccccc3nc2-1` [Camptothecin] (1500 nM), the normalised viability in the assay with DU-4475 was determined as 0.88%; in the assay with MDA-MB-453, 21.5%; in the assay with CAL-51 it was 4.85%; in the assay with HDQ-P1, 31.6%; with CAL-85-1, 25.1%; in the assay on CAL-148, 1.27%.

With `CCCC(CCC)C(=O)O` [Valproic acid] (3000 nM), the normalised viability in the assay on DU-4475 worked out at 88%; in the assay with MDA-MB-453 it was 103%; in the assay on CAL-51 it was 103%; with HDQ-P1, 112%; in the assay on CAL-85-1, 90%; in the assay on CAL-148, 104%.

In the case of `COc1ncc(-c2ccc3nccc(-c4ccnnc4)c3c2)cc1NS(=O)(=O)c1ccc(F)cc1F` (300 nM), the normalised viability came to 37.8% in the assay with DU-4475; 4.39% with MDA-MB-453; 6.4% in the assay with CAL-51; 21.2% with HDQ-P1; 17.9% in the assay on CAL-85-1; 6.61% in the assay with CAL-148.

In the case of `Cn1cnc2c(F)c(Nc3ccc(Br)cc3F)c(C(=O)NOCCO)cc21` [MEK-162] (300 nM), the normalised viability with DU-4475 was found to be 4.15%; with MDA-MB-453 it was 136%; in the assay on CAL-51, 90%; in the assay on HDQ-P1, 95.6%; in the assay on CAL-85-1, 86.7%; in the assay with CAL-148, 87.1%.

Take `Cn1c(=O)c(F)c(Nc2ccc(I)cc2F)c2c(=O)n(C[C@@H](O)CO)cnc21` [TAK-733] (300 nM): the normalised viability in the assay with DU-4475 was found to be 0.88%; in the assay with MDA-MB-453, 70.8%; with CAL-51, 76.7%; in the assay on HDQ-P1, 63.6%; with CAL-85-1, 53.5%; in the assay with CAL-148, 77.9%.

For the compound `COc1cccc2c1C(=O)c1c(O)c3c(c(O)c1C2=O)C[C@@](O)(C(C)=O)C[C@@H]3O[C@H]1C[C@H](N)[C@H](O)[C@H](C)O1` [Daunorubicin] (300 nM), the normalised viability in the assay on DU-4475 was 33.6%; in the assay with MDA-MB-453 it was 76.1%; in the assay with CAL-51, 31.2%; in the assay on HDQ-P1, 52.7%; in the assay on CAL-85-1 it was 53.8%; with CAL-148, 48.7%.

For the compound `COc1ccc(C2=N[C@@H](c3ccc(Cl)cc3)[C@@H](c3ccc(Cl)cc3)N2C(=O)N2CCNC(=O)C2)c(OC(C)C)c1` [Nutlin-3] (3000 nM), the normalised viability was determined as 67.5% in the assay on DU-4475; 83.9% with MDA-MB-453; 73% with CAL-51; 120% with HDQ-P1; 101% in the assay on CAL-85-1; 72.6% in the assay with CAL-148.

With `O=C(c1ccc(OCCN2CCCCC2)cc1)c1c(-c2ccc(O)cc2)sc2cc(O)ccc12` [Raloxifene] (3000 nM), the normalised viability with DU-4475 stood at 121%; in the assay on MDA-MB-453 it was 91.9%; in the assay on CAL-51 it was 101%; in the assay with HDQ-P1 it was 89.1%; with CAL-85-1, 94.3%; with CAL-148, 109%.

In the case of `O=P(O)(NCCCl)NCCCl` [Ifosfamide mustard] (3000 nM), the normalised viability worked out at 104% with DU-4475; 114% in the assay with MDA-MB-453; 108% in the assay with CAL-51; 106% in the assay with HDQ-P1; 96.5% in the assay on CAL-85-1; 100% with CAL-148.

With `CS(=O)(=O)OCCCCOS(C)(=O)=O` [Busulfan] (30000 nM), the normalised viability in the assay on DU-4475 stood at 91%; in the assay with MDA-MB-453 it was 117%; with CAL-51, 100%; in the assay with HDQ-P1, 102%; with CAL-85-1, 96.5%; with CAL-148, 107%.

As for `COc1c(C)cnc(Cn2cnc3c(Cl)nc(N)nc32)c1C` [BIIB021] (3000 nM), the normalised viability with DU-4475 was -0.3%; with MDA-MB-453, 6.99%; in the assay on CAL-51 it was 10.2%; with HDQ-P1, 33%; in the assay on CAL-85-1, 22.9%; in the assay with CAL-148, 17%.

With `COC(=O)C[C@](O)(CCCC(C)(C)O)C(=O)O[C@@H]1C(OC)=C[C@]23CCCN2CCc2cc4c(cc2[C@H]13)OCO4` [Omacetaxine mepesuccinate] (3000 nM), the normalised viability turned out to be 3.79% with DU-4475; 5.64% in the assay on MDA-MB-453; 5.99% with CAL-51; 13.4% in the assay on HDQ-P1; 2% in the assay on CAL-85-1; 5.63% in the assay with CAL-148.
